# Assay results reported in patent US11306078B2, “Piperidine CXCR7 receptor modulators” (IDORSIA PHARMACEUTICALS LTD., priority 2016, dated 2022).
# Biological target: human chemokine receptor CXCR7 (Homo sapiens (Human), UniProt P25106)
# Test: Tango CXCR7-bla U2OS beta-arrestin recruitment assay (beta-lactamase reporter, FRET), antagonism of CXCL12/SDF1-α;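 further: compounds preincubated 15 min before CXCL12 addition, then 22 h at 37 °C, FRET emission ratio read with CCF4-AM substrate after 2 h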
# Type: cell-based
# Details: antagonistic effect on CXCR7; Tango CXCR7-bla U2OS cells, CXCL12/SDF1-α at its EC80
# Sequence of human chemokine receptor CXCR7 (P25106 whole entry): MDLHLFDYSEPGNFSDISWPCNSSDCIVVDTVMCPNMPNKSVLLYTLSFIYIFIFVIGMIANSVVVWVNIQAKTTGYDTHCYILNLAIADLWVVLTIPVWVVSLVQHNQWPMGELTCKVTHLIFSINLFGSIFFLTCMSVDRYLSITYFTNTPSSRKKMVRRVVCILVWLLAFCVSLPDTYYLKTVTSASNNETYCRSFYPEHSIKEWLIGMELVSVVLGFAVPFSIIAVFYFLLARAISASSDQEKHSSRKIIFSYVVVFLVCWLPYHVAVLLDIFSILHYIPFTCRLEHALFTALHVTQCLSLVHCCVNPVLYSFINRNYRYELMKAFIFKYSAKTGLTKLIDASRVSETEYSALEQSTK
row,IC50 [nM],Structure (SMILES)
1,43,"O=C(N[C@@H]1CCN(C2CCCCC2)C[C@H]1C(=O)NC1(c2ccccn2)CC1)c1cn(-c2ccc(F)cc2F)nn1 (single isomer, unassigned) [Example 1.165a, (3R*,4R*)-1-Cyclohexyl-4-{[1-(2,4-difluoro-phenyl)-1H-[1,2,3]triazole-4-carbonyl]-amino}-piperidine-3-carboxylic acid (1-pyridin-2-yl-cyclopropyl)-amide]"
2,537,"O=C(N[C@@H]1CCN(C2CCCCC2)C[C@H]1C(=O)NC1(c2ccccn2)CC1)c1cn(-c2ccc(F)cc2F)nn1 (single isomer, unassigned) [Example 1.165b, (3R*,4R*)-1-Cyclohexyl-4-{[1-(2,4-difluoro-phenyl)-1H-[1,2,3]triazole-4-carbonyl]-amino}-piperidine-3-carboxylic acid (1-pyridin-2-yl-cyclopropyl)-amide]"
3,7,"O=C(N[C@@H]1CCN(CC2CC2)C[C@H]1C(=O)NC1(c2ccccn2)CC1)c1cc(-c2c(F)cc(F)cc2F)on1 (single isomer, unassigned) [Example 1.171a, (3R*,4R*)-1-Cyclopropylmethyl-4-{[5-(2,4,6-trifluoro-phenyl)-isoxazole-3-carbonyl]-amino}-piperidine-3-carboxylic acid (1-pyridin-2-yl-cyclopropyl)-amide]"
4,446,"O=C(N[C@@H]1CCN(CC2CC2)C[C@H]1C(=O)NC1(c2ccccn2)CC1)c1cc(-c2c(F)cc(F)cc2F)on1 (single isomer, unassigned) [Example 1.171b, (3R*,4R*)-1-Cyclopropylmethyl-4-{[5-(2,4,6-trifluoro-phenyl)-isoxazole-3-carbonyl]-amino}-piperidine-3-carboxylic acid (1-pyridin-2-yl-cyclopropyl)-amide]"
5,362,"Cc1cccc([C@H](C)NC(=O)[C@@H]2CN(C3CCCCC3)CC[C@H]2NC(=O)c2cc(-c3ccc(F)cc3F)on2)n1 (single isomer, unassigned) [Example 1.188.d, (3R*,4R*)-1-Cyclohexyl-4-{[5-(2,4-difluoro-phenyl)-isoxazole-3-carbonyl]-amino}-piperidine-3-carboxylic acid [(S)-1-(6-methyl-pyridin-2-yl)-ethyl]-amide]"
6,3,"Cc1cccc([C@@H](C)NC(=O)[C@@H]2CN(C3CCCCC3)CC[C@H]2NC(=O)c2cc(-c3ccc(F)cc3F)on2)n1 (single isomer, unassigned) [Example 1.188a, (3R*,4R*)-1-Cyclohexyl-4-{[5-(2,4-difluoro-phenyl)-isoxazole-3-carbonyl]-amino}-piperidine-3-carboxylic acid [(R)-1-(6-methyl-pyridin-2-yl)-ethyl]-amide]"
7,519,"Cc1cccc([C@@H](C)NC(=O)[C@@H]2CN(C3CCCCC3)CC[C@H]2NC(=O)c2cc(-c3ccc(F)cc3F)on2)n1 (single isomer, unassigned) [Example 1.188b, (3R*,4R*)-1-Cyclohexyl-4-{[5-(2,4-difluoro-phenyl)-isoxazole-3-carbonyl]-amino}-piperidine-3-carboxylic acid [(R)-1-(6-methyl-pyridin-2-yl)-ethyl]-amide]"
8,179,"Cc1cccc([C@H](C)NC(=O)[C@@H]2CN(C3CCCCC3)CC[C@H]2NC(=O)c2cc(-c3ccc(F)cc3F)on2)n1 (single isomer, unassigned) [Example 1.188c, (3R*,4R*)-1-Cyclohexyl-4-{[5-(2,4-difluoro-phenyl)-isoxazole-3-carbonyl]-amino}-piperidine-3-carboxylic acid [(S)-1-(6-methyl-pyridin-2-yl)-ethyl]-amide]"
9,854,"O=C(N[C@@H]1CCN(CC2CC2)C[C@H]1C(=O)NC1(c2ncccn2)CC1)c1cc(-c2ccc(C(F)(F)F)cc2)on1 (single isomer, unassigned) [Example 1.192a, (3R*,4R*)-1-Cyclopropylmethyl-4-{[5-(4-trifluoromethyl-phenyl)-isoxazole-3-carbonyl]-amino}-piperidine-3-carboxylic acid (1-pyrimidin-2-yl-cyclopropyl)-amide]"
10,122,"O=C(N[C@@H]1CCN(CC2CC2)C[C@H]1C(=O)NC1(c2ncccn2)CC1)c1cc(-c2ccc(C(F)(F)F)cc2)on1 (single isomer, unassigned) [Example 1.192b, (3R*,4R*)-1-Cyclopropylmethyl-4-{[5-(4-trifluoromethyl-phenyl)-isoxazole-3-carbonyl]-amino}-piperidine-3-carboxylic acid (1-pyrimidin-2-yl-cyclopropyl)-amide]"
11,771,"CN(C)C(=O)[C@@H]1CN(C2CCCCC2)CC[C@H]1NC(=O)c1nnc(-c2ccc(F)cc2F)o1 (single isomer, unassigned) [Example 3.003a, (3R*,4R*)-1-Cyclohexyl-4-{[5-(2,4-difluoro-phenyl)-[1,3,4]oxadiazole-2-carbonyl]-amino}-piperidine-3-carboxylic acid dimethylamide]"
12,54,"CN(C)C(=O)[C@@H]1CN(C2CCCCC2)CC[C@H]1NC(=O)c1nnc(-c2ccc(F)cc2F)o1 (single isomer, unassigned) [Example 3.003b, (3R*,4R*)-1-Cyclohexyl-4-{[5-(2,4-difluoro-phenyl)-[1,3,4]oxadiazole-2-carbonyl]-amino}-piperidine-3-carboxylic acid dimethylamide]"

row,Structure (SMILES),IC50 [nM]
1,"C[C@@H](NC(=O)[C@H]1CN(C2CCCCC2)CC[C@@H]1NC(=O)c1noc(-c2ccc(F)cc2F)n1)c1ccccn1 (single isomer, unassigned) [Example 1.156a, (3S,4S)-1-Cyclohexyl-4-{[5-(2,4-difluoro-phenyl)-[1,2,4]oxadiazole-3-carbonyl]-amino}-piperidine-3-carboxylic acid ((R)-1-pyridin-2-yl-ethyl)-amide or (3R,4R)-1-Cyclohexyl-4-{[5-(2,4-difluoro-phenyl)-[1,2,4]oxadiazole-3-carbonyl]-amino}-piperidine-3-carboxylic acid ((R)-1-pyridin-2-yl-ethyl)-amide]",19
2,"O=C(N[C@H]1CCN(C2CCCC2)C[C@@H]1C(=O)NC1(c2ccccn2)CC1)c1cc(-c2c(F)cc(F)cc2F)on1 (single isomer, unassigned) [Example 1.170a, (3S,4S)-1-Cyclopentyl-4-{[5-(2,4,6-trifluoro-phenyl)-isoxazole-3-carbonyl]-amino}-piperidine-3-carboxylic acid (1-pyridin-2-yl-cyclopropyl)-amide or (3R,4R)-1-Cyclopentyl-4-{[5-(2,4,6-trifluoro-phenyl)-isoxazole-3-carbonyl]-amino}-piperidine-3-carboxylic acid (1-pyridin-2-yl-cyclopropyl)-amide]",33
3,"O=C(N[C@H]1CCN(C2CCCC2)C[C@@H]1C(=O)NC1(c2ncccn2)CC1)c1cc(-c2c(F)cc(F)cc2F)on1 (single isomer, unassigned) [Example 1.176a, (3S,4S)-1-Cyclopentyl-4-{[5-(2,4,6-trifluoro-phenyl)-isoxazole-3-carbonyl]-amino}-piperidine-3-carboxylic acid (1-pyrimidin-2-yl-cyclopropyl)-amide or (3R,4R)-1-Cyclopentyl-4-{[5-(2,4,6-trifluoro-phenyl)-isoxazole-3-carbonyl]-amino}-piperidine-3-carboxylic acid (1-pyrimidin-2-yl-cyclopropyl)-amide]",5
4,"O=C(N[C@H]1CCN(CC2CC2)C[C@@H]1C(=O)NC1(c2ncccn2)CC1)c1cc(-c2ccc(Cl)cc2Cl)on1 (single isomer, unassigned) [Example 1.189a, (3S,4S)-1-Cyclopropylmethyl-4-{[5-(2,4-dichloro-phenyl)-isoxazole-3-carbonyl]-amino}-piperidine-3-carboxylic acid (1-pyrimidin-2-yl-cyclopropyl)-amide or (3R,4R)-1-Cyclopropylmethyl-4-{[5-(2,4-dichloro-phenyl)-isoxazole-3-carbonyl]-amino}-piperidine-3-carboxylic acid (1-pyrimidin-2-yl-cyclopropyl)-amide]",15
5,"O=C(N[C@@H]1CCN(CC2CC2)C[C@H]1C(=O)NC1(c2ncccn2)CC1)c1cc(-c2cccc(C(F)(F)F)c2)on1 (single isomer, unassigned) [Example 1.193a, (3R,4R)-1-Cyclopropylmethyl-4-{[5-(3-trifluoromethyl-phenyl)-isoxazole-3-carbonyl]-amino}-piperidine-3-carboxylic acid (1-pyrimidin-2-yl-cyclopropyl)-amide or (3S,4S)-1-cyclopropylmethyl-4-{[5-(3-trifluoromethyl-phenyl)-isoxazole-3-carbonyl]-amino}-piperidine-3-carboxylic acid (1-pyrimidin-2-yl-cyclopropyl)-amide]",97
6,"O=C(N[C@@H]1CCN(CC2CC2)C[C@H]1C(=O)NC1(c2ncccn2)CC1)c1cc(-c2ccc(F)c(F)c2F)on1 (single isomer, unassigned) [Example 1.194a, (3R,4R)-1-Cyclopropylmethyl-4-{[5-(2,3,4-trifluoro-phenyl)-isoxazole-3-carbonyl]-amino}-piperidine-3-carboxylic acid (1-pyrimidin-2-yl-cyclopropyl)-amide or (3S,4S)-1-cyclopropylmethyl-4-{[5-(2,3,4-trifluoro-phenyl)-isoxazole-3-carbonyl]-amino}-piperidine-3-carboxylic acid (1-pyrimidin-2-yl-cyclopropyl)-amide]",13
7,"O=C(N[C@H]1CCN(CC2CC2)C[C@@H]1C(=O)NC1(c2ccccn2)CC1)c1nnc(-c2ccc(F)cc2F)o1 (single isomer, unassigned) [Example 3.016a, (3S,4S)-1-Cyclopropylmethyl-4-{[5-(2,4-difluoro-phenyl)-[1,3,4]oxadiazole-2-carbonyl]-amino}-piperidine-3-carboxylic acid (1-pyridin-2-yl-cyclopropyl)-amide or (3R,4R)-1-Cyclopropylmethyl-4-{[5-(2,4-difluoro-phenyl)-[1,3,4]oxadiazole-2-carbonyl]-amino}-piperidine-3-carboxylic acid (1-pyridin-2-yl-cyclopropyl)-amide]",90
